Test results as given in PubChem BioAssay (NCI).
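A five-concentration, 48-hour dose response in 96-well plates underlies each endpoint, interpolated linearly between surrounding concentrations. GI50 = concentration required for 50% inhibition of growth. At the TGI there is no net growth.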

Legend:
Experiment in all cases: NCI-60 cell line screen, 48 h
COLO 205 colon = test system: COLO 205 colon
NCI/ADR-RES ovarian = test system: NCI/ADR-RES ovarian
EKVX NSCLC = test system: EKVX NSCLC
SK-MEL-28 melanoma = test system: SK-MEL-28 melanoma
RXF 393 renal = test system: RXF 393 renal
OVCAR-4 ovarian = test system: OVCAR-4 ovarian
OVCAR-8 ovarian = test system: OVCAR-8 ovarian
M14 melanoma = test system: M14 melanoma
MDA-MB-435 = test system: MDA-MB-435
CCRF-CEM leukemia = test system: CCRF-CEM leukemia

Structure (SMILES): [N-]=[N+]=NCCCn1c2c(c3ccc([N+](=O)[O-])cc3c1=O)C(=O)c1cc(Br)ccc1-2
- GI50 (COLO 205 colon): > 100 µM
- TGI (COLO 205 colon): > 100 µM
- GI50 (NCI/ADR-RES ovarian): > 100 µM
- TGI (NCI/ADR-RES ovarian): > 100 µM
- GI50 (EKVX NSCLC): > 100 µM
- TGI (EKVX NSCLC): > 100 µM
- GI50 (SK-MEL-28 melanoma): > 100 µM
- TGI (SK-MEL-28 melanoma): > 100 µM
- GI50 (RXF 393 renal): > 100 µM
- TGI (RXF 393 renal): > 100 µM
- GI50 (OVCAR-4 ovarian): > 100 µM
- TGI (OVCAR-4 ovarian): > 100 µM
- GI50 (OVCAR-8 ovarian): > 100 µM
- TGI (OVCAR-8 ovarian): > 100 µM
- GI50 (M14 melanoma): 3.02 µM
- TGI (M14 melanoma): > 100 µM
- GI50 (MDA-MB-435): > 100 µM
- TGI (MDA-MB-435): > 100 µM
- GI50 (CCRF-CEM leukemia): 0.545 µM
- TGI (CCRF-CEM leukemia): > 100 µM

Structure (SMILES): O=C(O)/C(Cc1cn[nH]n1)=N\O
- TGI (COLO 205 colon): > 100 µM
- TGI (NCI/ADR-RES ovarian): > 100 µM
- TGI (EKVX NSCLC): > 100 µM
- TGI (SK-MEL-28 melanoma): > 100 µM
- TGI (RXF 393 renal): > 100 µM
- TGI (OVCAR-4 ovarian): > 100 µM
- TGI (OVCAR-8 ovarian): > 100 µM
- TGI (M14 melanoma): > 100 µM
- TGI (MDA-MB-435): > 100 µM
- TGI (CCRF-CEM leukemia): > 100 µM

Structure (SMILES): CN(C)CCCn1c(=O)c2ccccc2c2cnc3[nH]ccc3c21
- GI50 (COLO 205 colon): 0.686 µM
- TGI (COLO 205 colon): 3.54 µM
- GI50 (NCI/ADR-RES ovarian): 1.25 µM
- TGI (NCI/ADR-RES ovarian): 6.24 µM
- GI50 (EKVX NSCLC): 2.27 µM
- TGI (EKVX NSCLC): 8.43 µM
- GI50 (SK-MEL-28 melanoma): 2.23 µM
- TGI (SK-MEL-28 melanoma): 5.18 µM
- GI50 (RXF 393 renal): 1.4 µM
- TGI (RXF 393 renal): 3.99 µM
- GI50 (OVCAR-4 ovarian): 1.92 µM
- TGI (OVCAR-4 ovarian): 8.63 µM
- GI50 (OVCAR-8 ovarian): 1.43 µM
- TGI (OVCAR-8 ovarian): 6.88 µM
- GI50 (M14 melanoma): 1.83 µM
- TGI (M14 melanoma): 4.44 µM
- GI50 (MDA-MB-435): 1.76 µM
- TGI (MDA-MB-435): 6.66 µM
- GI50 (CCRF-CEM leukemia): 1.53 µM
- TGI (CCRF-CEM leukemia): 8.44 µM

Structure (SMILES): S=C1Cc2c(-c3ccc(Br)cc3)cc(-c3ccccc3)nc2-c2ccccc2N1
- TGI (COLO 205 colon): 21.4 µM
- TGI (NCI/ADR-RES ovarian): 4.43 µM
- TGI (EKVX NSCLC): 4.67 µM
- TGI (SK-MEL-28 melanoma): 27.3 µM
- TGI (RXF 393 renal): 6.01 µM
- TGI (OVCAR-4 ovarian): 1.43 µM
- TGI (OVCAR-8 ovarian): 3.02 µM
- TGI (M14 melanoma): 11.8 µM
- TGI (MDA-MB-435): 20.6 µM
- TGI (CCRF-CEM leukemia): 11.2 µM

Structure (SMILES): COc1ccc(-c2cncn2-c2cc(OC)c(OC)c(OC)c2)cc1
- GI50 (COLO 205 colon): 0.103 µM
- TGI (COLO 205 colon): 9.7 µM
- GI50 (NCI/ADR-RES ovarian): 0.0652 µM
- TGI (NCI/ADR-RES ovarian): 0.915 µM
- GI50 (EKVX NSCLC): 3.06 µM
- TGI (EKVX NSCLC): > 100 µM
- GI50 (SK-MEL-28 melanoma): 11.3 µM
- TGI (SK-MEL-28 melanoma): > 100 µM
- GI50 (RXF 393 renal): 0.448 µM
- TGI (RXF 393 renal): 21.3 µM
- GI50 (OVCAR-4 ovarian): > 36.3 µM
- TGI (OVCAR-4 ovarian): > 100 µM
- GI50 (OVCAR-8 ovarian): 1.07 µM
- TGI (OVCAR-8 ovarian): > 51.3 µM
- GI50 (M14 melanoma): 0.179 µM
- TGI (M14 melanoma): 12.7 µM
- GI50 (MDA-MB-435): 0.0178 µM
- TGI (MDA-MB-435): 0.0567 µM
- GI50 (CCRF-CEM leukemia): 0.843 µM
- TGI (CCRF-CEM leukemia): 18.5 µM

Structure (SMILES): CS(=O)(=O)Nc1cccc(-c2ccc3ncnc(Nc4ccc(F)c(Cl)c4)c3c2)c1
- GI50 (COLO 205 colon): 1.6 µM
- TGI (COLO 205 colon): 3.35 µM
- GI50 (NCI/ADR-RES ovarian): 2.03 µM
- TGI (NCI/ADR-RES ovarian): 7.54 µM
- GI50 (EKVX NSCLC): 0.129 µM
- TGI (EKVX NSCLC): 3.72 µM
- GI50 (SK-MEL-28 melanoma): 2.28 µM
- TGI (SK-MEL-28 melanoma): 7.2 µM
- GI50 (RXF 393 renal): 1.49 µM
- TGI (RXF 393 renal): 4.44 µM
- GI50 (OVCAR-4 ovarian): 2.42 µM
- TGI (OVCAR-4 ovarian): > 30.6 µM
- GI50 (OVCAR-8 ovarian): 2.23 µM
- TGI (OVCAR-8 ovarian): 8.53 µM
- GI50 (M14 melanoma): 1.76 µM
- TGI (M14 melanoma): 3.66 µM
- GI50 (MDA-MB-435): 1.91 µM
- TGI (MDA-MB-435): 4.75 µM
- GI50 (CCRF-CEM leukemia): 3.05 µM
- TGI (CCRF-CEM leukemia): > 100 µM
